assay: Binding ability of the receptor to the surface of Cytochrome c and activity expressed as Dissociation constant(Kd); design: species or system Equus caballus

| Kd [nM] | Compound |
| --- | --- |
| 1500 | O=C(O)c1cc(C(=O)O)cc(-c2ccc(-c3c4nc(c(-c5ccc(-c6cc(C(=O)O)cc(C(=O)O)c6)cc5)c5ccc([nH]5)c(-c5ccc(-c6cc(C(=O)O)cc(C(=O)O)c6)cc5)c5ccc([nH]5)c(-c5ccc(-c6cc(C(=O)O)cc(C(=O)O)c6)cc5)c5nc3C=C5)C=C4)cc2)c1 |
| 0.67 | O=C(O)C[C@H](NC(=O)c1cc(C(=O)N[C@@H](CC(=O)O)C(=O)O)cc(-c2ccc(-c3c4nc(c(-c5ccc(-c6cc(C(=O)N[C@@H](CC(=O)O)C(=O)O)cc(C(=O)N[C@@H](CC(=O)O)C(=O)O)c6)cc5)c5ccc([nH]5)c(-c5ccc(-c6cc(C(=O)N[C@@H](CC(=O)O)C(=O)O)cc(C(=O)N[C@H](CC(=O)O)C(=O)O)c6)cc5)c5nc(c(-c6ccc(-c7cc(C(=O)N[C@@H](CC(=O)O)C(=O)O)cc(C(=O)N[C@@H](CC(=O)O)C(=O)O)c7)cc6)c6ccc3[nH]6)C=C5)C=C4)cc2)c1)C(=O)O |
| 1700 | COC(=O)[C@H](CC(=O)O)NC(=O)c1cc(C(=O)N[C@@H](CC(=O)O)C(=O)OC)cc(-c2ccc(-c3c4nc(c(-c5ccc(-c6cc(C(=O)N[C@@H](CC(=O)O)C(=O)OC)cc(C(=O)N[C@@H](CC(=O)O)C(=O)OC)c6)cc5)c5ccc([nH]5)c(-c5ccc(-c6cc(C(=O)N[C@@H](CC(=O)O)C(=O)OC)cc(C(=O)N[C@H](CC(=O)O)C(=O)OC)c6)cc5)c5nc(c(-c6ccc(-c7cc(C(=O)N[C@@H](CC(=O)O)C(=O)OC)cc(C(=O)N[C@@H](CC(=O)O)C(=O)OC)c7)cc6)c6ccc3[nH]6)C=C5)C=C4)cc2)c1 |
| 17000 | O=C(O)c1ccc(-c2ccc(-c3c4nc(c(-c5ccc(-c6ccc(C(=O)O)cc6)cc5)c5ccc([nH]5)c(-c5ccc(-c6ccc(C(=O)O)cc6)cc5)c5ccc([nH]5)c(-c5ccc(-c6ccc(C(=O)O)cc6)cc5)c5nc3C=C5)C=C4)cc2)cc1 |

From ChEMBL document CHEMBL1136148, “Tetrabiphenylporphyrin-based receptors for protein surfaces show sub-nanomolar affinity and enhance unfolding” (Bioorg Med Chem Lett, 2003)
